Among the data in ChEMBL document CHEMBL1159149, “Phenalene metabolites from eichhornia crassipes” (1992) are Inhibition zone values, retold here.

For this assay, the system named is Porphyridium aerugineum. Description: Compound at a conc of 2 umol was tested for antialgal activity against Porphyridium aerugineum in filter paper-petri dish bioassay. The format is functional.
For `COc1cc2ccc(-c3ccccc3)c3c2c(c1OC)CCC3OC` (stereo not drawn), the Inhibition zone came out at 25 mm. Take `COc1ccc2c(-c3ccccc3)cc(OC)c3c2c1CCC3OC` (stereo not drawn): the Inhibition zone came out at 25 mm. Compound `COc1ccc(-c2cc(OC)c3c4c(c(OC)ccc24)CCC3OC)cc1` (stereo not drawn) registered an Inhibition zone of 25 mm.
